{"source": "patent EP2265599B1", "about": "“CRYSTAL FORM OF PHENYLAMINOPYRIMIDINE DERIVATIVE” (Natco Pharma Limited, priority 2008, dated 2009)", "key": {"[1]": {"experiment": "Thermodynamic stability of the crystal forms at room temperature", "format": "physicochemical"}, "[2]": {"test_system": "K562 luc human leukemia cells", "experiment": "Low dose oral treatment of nude mice implanted with K562 luc cells (luciferase expression)", "format": "in vivo", "settings": "oral administration", "experimental": "Nude mice (nu/nu) were implanted with K562 cells (1x106) normal/luc via tail vein. Five mice were used per group and divided into 24 groups + 2 control. All groups were implanted with K562 normal/luc cells. Of the 24 groups, 12 were used for luciferase studies whereas the other 12 were used for blood smear count studies.\nDrugs were administered by oral gavage (2% gum acacia and 2% SLS in an aqueous suspension)."}, "[3]": {"test_system": "K562 luciferase expressing cells", "experiment": "Leukemic survival study, K562 luciferase expressing cells implanted intraperitoneally", "format": "in vivo, nude mice", "description": "K562 luciferase expressing cells were implanted intraperitoneally into nude mice; the mice were scanned using the xenogeny IVIS image station after ip injections of luciferin does determine implantations. Drug treatment was started as in previous studies day 15 after implantation. The animals were given treatment till day 42, after which drug treatment was stopped and survival of the animals determined as per the animal care regulations. […] Drug treatment was withdrawn on day 42 post implantation and survival of animals determined."}, "[4]": {"experiment": "Heat stability of Form-III crystal form (heated in oil bath, examined by XRPD)", "format": "physicochemical", "settings": "6 hours, form-I and Form-II below the detection level", "from_the_text": "Pure Form-III crystal form (1 gm) prepared by the present process was placed in a boiling tube and heated gradually in oil bath. Then the substance was examined by XRPD."}, "[5]": {"experiment": "Stability of Form-III crystal form under accelerated stress conditions in bulk and formulated capsule", "format": "physicochemical", "from_the_text": "Table 5 - Stability of Form-III crystal form in bulk and formulated capsule"}, "[6]": {"test_system": "4910 human glioma xenograft cells", "experiment": "Glioma radiation study, intracranially implanted 4910 cells", "format": "in vivo, Nude mice", "settings": "terminated at day 40", "experimental": "Nude mice were intracranially implanted with 4910 human glioma xenograft cells (1x10^6 cells). Ten days after implantation mice were treated with AN019, AN024 or temozolomide with or without radiation (5Gy/week). The experiment was terminated at day 40 post implantation."}}, "note": "“Also recorded” adds a separate entry of the source. Where a name gives a salt, the structure may show the parent alone."}
{"smiles": "Cc1ccc(NC(=O)c2cc(C(F)(F)F)cc(C(F)(F)F)c2)cc1Nc1nccc(-c2cccnc2)n1", "note": "[Form-I, (3,5-bis trifluoromethyl)-N-[4-methyl-3-(4-pyridin-3yl-pyrimidin-2ylamino)-phenyl]-benzamide]", "values": [{"measurement": "stability of crystal form at room temperature", "setting": "[1]", "result": "metastable at room temperature"}]}
{"smiles": "Cc1ccc(NC(=O)c2ccc(CN3CCN(C)CC3)cc2)cc1Nc1nccc(-c2cccnc2)n1", "note": "[Imatinib, Imatinib mesylate, reference compound]", "values": [{"measurement": "luciferase expression", "setting": "[2]; 10mg/kg", "result": "did show a retardation of luciferase expression"}, {"measurement": "luciferase expression", "setting": "[2]; 20mg/kg", "result": "did show a retardation of luciferase expression"}, {"measurement": "leukemic symptoms after treatment withdrawal", "setting": "[3]; drug treatment withdrawn on day 42", "result": "showed reoccurrences of leukemic symptoms after treatment withdrawal"}, {"measurement": "Blast cell count from blood smears after withdrawal of drug treatment", "setting": "[3]; drug treatment withdrawn on day 42 (Fig. 21)", "result": "found to be ineffective"}, {"measurement": "mortality", "setting": "[3]; treatment from day 15 till day 42, then withdrawn, AN024 death determined to be other than leukemia", "result": "showed mortality on day 55, 56, 57 and 58"}]}
{"smiles": "Cc1ccc(NC(=O)c2cc(C(F)(F)F)cc(C(F)(F)F)c2)cc1Nc1nccc(-c2cccnc2)n1", "note": "[Form-III, (3,5-bis trifluoromethyl)-N-[4-methyl-3-(4-pyridin-3yl-pyrimidin-2ylamino)-phenyl]-benzamide]", "values": [{"measurement": "stability of crystal form at room temperature", "setting": "[1]", "result": "thermodynamically stable form at room temperature"}, {"measurement": "Polymorph form detected after heating", "setting": "[4]; 110°C", "result": "Form-III"}, {"measurement": "Polymorph form detected after heating", "setting": "[4]; 120°C", "result": "Form-III"}, {"measurement": "Polymorph form detected after heating", "setting": "[4]; 130°C", "result": "non-metastable and stable when heated at 130 °C for 6 hours; also recorded: stable to heat even at 130 °C for 6 hours; also recorded: Form-III"}, {"measurement": "Polymorph content of bulk compound of formula I, Polymorph form detected", "setting": "[5]; 0 Month at 40±2°C / 75 ±5% RH", "result": "Form-III"}, {"measurement": "Polymorph content of bulk compound of formula I, Polymorph form detected", "setting": "[5]; 1 Month at 40±2°C / 75 ±5% RH", "result": "Form-III"}, {"measurement": "Polymorph content of bulk compound of formula I, Polymorph form detected", "setting": "[5]; 2 Months at 40±2°C / 75 ±5% RH", "result": "Form-III"}, {"measurement": "Polymorph content of bulk compound of formula I, Polymorph form detected", "setting": "[5]; 3 Months at 40±2°C / 75 ±5% RH", "result": "Form-III"}, {"measurement": "Polymorph content of bulk compound of formula I, Polymorph form detected", "setting": "[5]; 6 Months at 40±2°C / 75 ±5% RH", "result": "Form-III"}, {"measurement": "Polymorph content of Formula I in formulated capsule, Polymorph form detected", "setting": "[5]; 0 Month at 40±2°C / 75 ±5% RH", "result": "Form-III"}, {"measurement": "Polymorph content of Formula I in formulated capsule, Polymorph form detected", "setting": "[5]; 1 Month at 40±2°C / 75 ±5% RH", "result": "Form-III"}, {"measurement": "Polymorph content of Formula I in formulated capsule, Polymorph form detected", "setting": "[5]; 2 Months at 40±2°C / 75 ±5% RH", "result": "Form-III"}, {"measurement": "Polymorph content of Formula I in formulated capsule, Polymorph form detected", "setting": "[5]; 3 Months at 40±2°C / 75 ±5% RH", "result": "Form-III"}, {"measurement": "Polymorph content of Formula I in formulated capsule, Polymorph form detected", "setting": "[5]; 6 Months at 40±2°C / 75 ±5% RH", "result": "Form-III"}]}
{"smiles": "Cn1nnc2c(C(N)=O)ncn2c1=O", "note": "[Temozolomide, reference compound]", "values": [{"measurement": "animals cured / no observable intracranial tumor", "setting": "[6]; with radiation (5Gy/week)", "result": "2 of 10 animals"}, {"measurement": "animals cured / complete absence of intracranial tumours", "setting": "[6]; without radiation, treatment from ten days after implantation", "result": "3 of 10 animals"}]}
{"smiles": "Cc1ccc(NC(=O)c2cc(C(F)(F)F)cc(C(F)(F)F)c2)cc1Nc1nccc(-c2cccnc2)n1", "note": "[Form-II, (3,5-bis trifluoromethyl)-N-[4-methyl-3-(4-pyridin-3yl-pyrimidin-2ylamino)-phenyl]-benzamide]", "values": [{"measurement": "stability of crystal form at room temperature", "setting": "[1]", "result": "metastable at room temperature"}]}
